Laboratory results taken from US8709803B2, “Cell transport system comprising a homogeneous mixture of agarose and agarase” (Histocell, S.L., priority 2008, dated 2014).

Experiments:
[1] = tested on: SK-N-MC cells; test: Verification of morphology and cell density by microscopy on plates treated with laminin (FIG. 8b); type: cell-based, human; conditions: plates with laminin vs normal plate, same number of starting cells
Protocol: (§1) As a result, SK-N-MC cells were cultured in standard 24-well plates and in 24-well plates previously treated with laminin (Laminin 24-well Multiwell plates, BD) at a cell density of 300,000 cells per well and 1 ml of specific medium consisting of MEM medium supplemented with 2 mM L-glutamine, 1 mM sodium pyruvate, 0.1 mM non-essential amino acids, […] of gentamicin and 1% antibiotic at 37° C. and 5% CO2.
(§2) The day after seeding the SK-N-MC cells in the standard 24-well plates and in 24-well plates treated with laminin, transport conditions are simulated according to the specifications described in the previous example.
In turn, the analysis of the cell morphology of the cultures of SK-N-MC in normal 24-well plates and 24-well plates treated with laminin shown in FIG. 8b proves that the number of cells in the culture in plates with laminin is greater than that of the culture in a normal plate despite the fact that the number of starting cells for both of them is the same, which reaffirms the results obtained from measuring the proliferation by means of MTT. The non-detection of the difference in the cell density by the proliferation assay by means of MTT can be due to the high cell confluence of both cultures.

[2] = tested on: SK-N-MC cells; test: Proliferation assay with MTT on plates treated with laminin (FIG. 8a); type: cell-based, human; conditions: plate treated with laminin vs standard 24-well plate
Protocol: as §1, §2
Once the time necessary for the cells to recover from transport has elapsed, the proliferation rate of both cultures is determined by means of measuring cell proliferation at times 24 and 48 h using the MTT test described in the previous example.

Substance: laminin
- number of cells in the culture (microscopy) [1]: greater
- proliferation rate (MTT) ([2]; after 24 hours in culture): an increase in the proliferation
- proliferation rate (MTT) ([2]; after 48 hours in culture): equal
